Some results are limits rather than exact numbers.

In this test the target is ABL1 (64-515) (Homo sapiens (Human), UniProt P00519). In words: Radio ABL1 (64-515) assay (radiometric filter-binding). Type of test: biochemical.
ABL1 (64-515), sequence (P00519 64-515): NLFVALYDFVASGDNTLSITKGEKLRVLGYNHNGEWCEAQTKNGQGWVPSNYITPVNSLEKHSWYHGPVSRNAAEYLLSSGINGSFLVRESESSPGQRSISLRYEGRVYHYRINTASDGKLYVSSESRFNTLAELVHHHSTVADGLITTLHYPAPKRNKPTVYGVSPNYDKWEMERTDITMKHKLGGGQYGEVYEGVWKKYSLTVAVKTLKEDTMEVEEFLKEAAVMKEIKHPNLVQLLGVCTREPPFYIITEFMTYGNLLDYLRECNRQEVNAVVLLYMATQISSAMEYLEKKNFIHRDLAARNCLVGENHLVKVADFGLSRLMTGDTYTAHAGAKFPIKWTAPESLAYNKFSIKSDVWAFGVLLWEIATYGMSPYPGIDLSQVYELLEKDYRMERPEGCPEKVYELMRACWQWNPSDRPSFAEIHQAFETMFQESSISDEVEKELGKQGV
As for `Cc1ncc(-c2cc(C(=O)Nc3ccc(OC(F)(F)F)cc3)ccc2N2CC[C@@H](O)C2)cn1` [Example 3, (R)-4-(3-Hydroxypyrrolidin-1-yl)-3-(2-methylpyrimidin-5-yl)-N-(4-(trifluoromethoxy)phenyl)benzamide], the IC50 (in general, the concentration needed to halve the response being measured) was less than 3 nM.
In the case of `Cc1ccc(-c2cc(C(=O)Nc3ccc(OC(F)(F)F)cc3)ccc2N2CC[C@@H](O)C2)cn1` [Example 6, (R)-4-(3-Hydroxypyrrolidin-1-yl)-3-(6-methylpyridin-3-yl)-N-(4-(trifluoromethoxy)phenyl)benzamide], the IC50 is less than 3 nM.
With `CC1(O)CCN(c2ccc(C(=O)Nc3ccc(OC(F)(F)F)cc3)cc2-c2cncnc2)C1` (stereo not drawn) [Example 11, 4-(3-Hydroxy-3-methylpyrrolidin-1-yl)-3-(pyrimidin-5-yl)-N-(4-(trifluoromethoxy)phenyl)benzamide] the figure was less than 3 nM; with `CC(=O)NC1CCN(c2ncc(C(=O)Nc3ccc(OC(F)(F)F)cc3)cc2-c2cncnc2)C1` (stereo not drawn) [Example 15], less than 3 nM; with `CN1CC2CN(c3ncc(C(=O)Nc4ccc(OC(F)(F)F)cc4)cc3-c3cncnc3)CC2C1` (stereo not drawn) [Example 16], less than 3 nM.
Take `O=C(Nc1ccc(OC(F)(F)F)cc1)c1cnc(N2CCC3(CCNC3=O)C2)c(-c2cncnc2)c1` (stereo not drawn) [Example 17]: the IC50 is less than 3 nM.
For the compound `O=C(Nc1ccc(OC(F)(F)F)cc1)c1cnc(N2Cc3ccncc3C2)c(-c2cncnc2)c1` [Example 18], the IC50 is less than 3 nM.
`O=C(Nc1ccc(OC(F)(F)F)cc1)c1cnc(N2CCCC(CO)C2)c(-c2cncnc2)c1` (stereo not drawn) [Example 19] gave an IC50 of less than 3 nM.
Turning to `CC(=O)NC1CCCN(c2ncc(C(=O)Nc3ccc(OC(F)(F)F)cc3)cc2-c2cncnc2)C1` (stereo not drawn) [Example 20], the IC50 is less than 3 nM.
With `NC(=O)C1CCN(c2ncc(C(=O)Nc3ccc(OC(F)(F)F)cc3)cc2-c2cncnc2)CC1` [Example 21], the IC50 was found to be 13 nM.
For the compound `O=C(Nc1ccc(OC(F)(F)F)cc1)c1cnc(N2CCC(O)CC2)c(-c2cncnc2)c1` [Example 22], the IC50 is less than 3 nM.
`N#C[C@@H]1CCCN(c2ncc(C(=O)Nc3ccc(OC(F)(F)F)cc3)cc2-c2cncnc2)C1` [Example 23]: the IC50 is less than 3 nM.
With `N#C[C@H]1CCCN(c2ncc(C(=O)Nc3ccc(OC(F)(F)F)cc3)cc2-c2cncnc2)C1` [Example 24] the figure was less than 3 nM; with `CN(c1ncc(C(=O)Nc2ccc(OC(F)(F)F)cc2)cc1-c1cncnc1)C1CCOCC1` [Example 27], less than 3 nM.
`COc1ncc(-c2cc(C(=O)Nc3ccc(OC(F)(F)F)cc3)cnc2N2CCC(O)C2)cn1` (stereo not drawn) [Example 28, 6-(3-Hydroxypyrrolidin-1-yl)-5-(2-methoxypyrimidin-5-yl)-N-(4-(trifluoromethoxy)phenyl)nicotinamide] had an IC50 of less than 3 nM.
`O=C(Nc1ccc(OC(F)(F)F)cc1)c1cnc(N2CCC(O)C2)c(-c2cccnc2)c1` (stereo not drawn) [Example 29, 2-(3-Hydroxypyrrolidin-1-yl)-N-(4-(trifluoromethoxy)phenyl)-[3,3′-bipyridine]-5-carboxamide]: the IC50 is less than 3 nM.
`Cc1ccc(-c2cc(C(=O)Nc3ccc(OC(F)(F)F)cc3)cnc2N2CCC(O)C2)cn1` (stereo not drawn) [Example 30, 2-(3-Hydroxypyrrolidin-1-yl)-6′-methyl-N-(4-(trifluoromethoxy)phenyl)-[3,3′-bipyridine]-5-carboxamide] returned an IC50 of less than 3 nM.
`O=C(Nc1ccc(OC(F)(F)F)cc1)c1cnc(N2CCC(O)C2)c(-c2ccncc2)c1` (stereo not drawn) [Example 31, 2-(3-Hydroxypyrrolidin-1-yl)-N-(4-(trifluoromethoxy)phenyl)-[3,4′-bipyridine]-5-carboxamide]: the IC50 was determined as 7 nM.
Turning to `O=C(Nc1ccc(OC(F)(F)F)cc1)c1cnc(N2CCC(O)C2)c(-c2ccc(C(F)(F)F)nc2)c1` (stereo not drawn) [Example 32, 2-(3-Hydroxypyrrolidin-1-yl)-N-(4-(trifluoromethoxy)phenyl)-6′-(trifluoromethyl)-[3,3′-bipyridine]-5-carboxamide], the IC50 was less than 3 nM.
`Cc1ncc(-c2cc(C(=O)Nc3ccc(OC(F)(F)F)cc3)cnc2N2CC[C@@H](O)C2)cn1` [Example 36, (R)-6-(3-Hydroxypyrrolidin-1-yl)-5-(2-methylpyrimidin-5-yl)-N-(4-(trifluoromethoxy)phenyl)nicotinamide] returned an IC50 of less than 3 nM.
In the case of `COc1ncc(-c2cc(C(=O)Nc3ccc(OC(F)(F)F)cc3)cnc2N2CC[C@@H](O)C2)cn1` [Example 37, (R)-6-(3-Hydroxypyrrolidin-1-yl)-5-(2-methoxypyrimidin-5-yl)-N-(4-(trifluoromethoxy)phenyl)nicotinamide], the IC50 stood at 3 nM.
The compound `Cc1cncc(-c2cc(C(=O)Nc3ccc(OC(F)(F)F)cc3)cnc2N2CC[C@@H](O)C2)c1` [Example 44, (R)-2-(3-Hydroxypyrrolidin-1-yl)-5′-methyl-N-(4-(trifluoromethoxy)phenyl)-[3,3′-bipyridine]-5-carboxamide] came in with an IC50 of less than 3 nM.
The compound `COc1cncc(-c2cc(C(=O)Nc3ccc(OC(F)(F)F)cc3)cnc2N2CC[C@@H](O)C2)c1` [Example 55, (R)-2-(3-hydroxypyrrolidin-1-yl)-5′-methoxy-N-(4-(trifluoromethoxy)phenyl)-[3,3′-bipyridine]-5-carboxamide] yielded an IC50 of 3 nM.
In turn, `COc1ccc(-c2cc(C(=O)Nc3ccc(OC(F)(F)F)cc3)cnc2N2CC[C@@H](O)C2)cn1` [Example 56, (R)-2-(3-hydroxypyrrolidin-1-yl)-6′-methoxy-N-(4-(trifluoromethoxy)phenyl)-[3,3′-bipyridine]-5-carboxamide] yielded an IC50 of 4 nM.
Compound `O=C(Nc1ccc(OC(F)(F)F)cc1)c1cnc(N2CC[C@@H](O)C2)c(-c2cccc(CO)c2)c1` [Example 59, (R)-5-(3-(Hydroxymethyl)phenyl)-6-(3-hydroxypyrrolidin-1-yl)-N-(4-(trifluoromethoxy)phenyl)nicotinamide] gave an IC50 of 6 nM.
Turning to `O=C(Nc1ccc(OC(F)(F)F)cc1)c1cnc(N2CC[C@@H](O)C2)c(-c2ccc3ccncc3c2)c1` [Example 63, (R)-6-(3-Hydroxypyrrolidin-1-yl)-5-(isoquinolin-7-yl)-N-(4-(trifluoromethoxy)phenyl)nicotinamide], the IC50 is 4 nM.
The same measure for `O=C(Nc1ccc(OC(F)(F)F)cc1)c1cnc(N2CC[C@@H](O)C2)c(-c2ccc3nccnc3c2)c1` [Example 64, (R)-6-(3-Hydroxypyrrolidin-1-yl)-5-(quinoxalin-6-yl)-N-(4-(trifluoromethoxy)phenyl)nicotinamide]: less than 3 nM; for `O=C(Nc1ccc(OC(F)(F)F)cc1)c1cnc(N2CCCC2)c(-c2cncnc2)c1` [Example 67, 5-(Pyrimidin-5-yl)-6-(pyrrolidin-1-yl)-N-(4-(trifluoromethoxy)phenyl)nicotinamide]: less than 3 nM.
As to `O=C(Nc1ccc(OC(F)(F)F)cc1)c1cnc(N2CC[C@@H](CO)C2)c(-c2cccnc2)c1` [Example 76, (R)-2-(3-(Hydroxymethyl)pyrrolidin-1-yl)-N-(4-(trifluoromethoxy)phenyl)-[3,3′-bipyridine]-5-carboxamide], the IC50 is less than 3 nM.
`N#Cc1ncc(-c2cc(C(=O)Nc3ccc(OC(F)(F)F)cc3)cnc2N2CC[C@H](CO)C2)cn1` [Example 80, (S)-5-(2-Cyanopyrimidin-5-yl)-6-(3-(hydroxymethyl)pyrrolidin-1-yl)-N-(4-(trifluoromethoxy)phenyl)nicotinamide] displayed an IC50 of 5 nM.
In the case of `O=C(Nc1ccc(OC(F)(F)F)cc1)c1cnc(N2CC[C@H](CO)C2)c(-c2cccnc2)c1` [Example 81, (S)-2-(3-(Hydroxymethyl)pyrrolidin-1-yl)-N-(4-(trifluoromethoxy)phenyl)-[3,3′-bipyridine]-5-carboxamide], the IC50 is less than 3 nM.
With `CCc1ccc(-c2cc(C(=O)Nc3ccc(OC(F)(F)F)cc3)cnc2N2CC[C@H](CO)C2)cn1` [Example 83, (S)-6′-Ethyl-2-(3-(hydroxymethyl)pyrrolidin-1-yl)-N-(4-(trifluoromethoxy)phenyl)-[3,3′-bipyridine]-5-carboxamide] the figure was 11 nM; with `O=C(Nc1ccc(OC(F)(F)F)cc1)c1cnc(N2CC[C@H](CO)C2)c(-c2ccc(C3CC3)nc2)c1` [Example 85, (S)-6′-Cyclopropyl-2-(3-(hydroxymethyl)pyrrolidin-1-yl)-N-(4-(trifluoromethoxy)phenyl)-[3,3′-bipyridine]-5-carboxamide], 26 nM; with `N#Cc1ccc(-c2cc(C(=O)Nc3ccc(OC(F)(F)F)cc3)cnc2N2CC[C@H](CO)C2)cn1` [Example 91, (S)-6′-Cyano-2-(3-(hydroxymethyl)pyrrolidin-1-yl)-N-(4-(trifluoromethoxy)phenyl)-[3,3′-bipyridine]-5-carboxamide], 5 nM.
`N[C@@H]1CCN(c2ncc(C(=O)Nc3ccc(OC(F)(F)F)cc3)cc2-c2cccnc2)C1` [Example 94, (R)-2-(3-Aminopyrrolidin-1-yl)-N-(4-(trifluoromethoxy)phenyl)-[3,3′-bipyridine]-5-carboxamide] yielded an IC50 of less than 3 nM.
The same measure for `Cc1ccc(-c2cc(C(=O)Nc3ccc(OC(F)(F)F)cc3)cnc2N2CC[C@@H](N)C2)cn1` [Example 95, (R)-2-(3-Aminopyrrolidin-1-yl)-6′-methyl-N-(4-(trifluoromethoxy)phenyl)-[3,3′-bipyridine]-5-carboxamide]: less than 3 nM; for `N[C@H]1CCN(c2ncc(C(=O)Nc3ccc(OC(F)(F)F)cc3)cc2-c2cccnc2)C1` [Example 97, (S)-2-(3-Aminopyrrolidin-1-yl)-N-(4-(trifluoromethoxy)phenyl)-[3,3′-bipyridine]-5-carboxamide]: less than 3 nM.
In turn, `CN[C@@H]1CCN(c2ncc(C(=O)Nc3ccc(OC(F)(F)F)cc3)cc2-c2cncnc2)C1` [Example 99, (R)-6-(3-(Methylamino)pyrrolidin-1-yl)-5-(pyrimidin-5-yl)-N-(4-(trifluoromethoxy)phenyl)nicotinamide] had an IC50 of less than 3 nM.
Compound `CN[C@@H]1CCN(c2ncc(C(=O)Nc3ccc(OC(F)(F)F)cc3)cc2-c2cccnc2)C1` [Example 100, (R)-2-(3-(Methylamino)pyrrolidin-1-yl)-N-(4-(trifluoromethoxy)phenyl)-[3,3′-bipyridine]-5-carboxamide] came in with an IC50 of less than 3 nM.
